The results in this text go back to PubChem BioAssay (NCI).

Common to all, as to assay: growth of human tumour cells (NCI), 48 h
In experiment [1] the test system is SN12C renal.
The test system of experiment [2] is HOP-62 NSCLC.
Experiment [3] concerns HOP-92 NSCLC.
The subject of experiment [4] is RXF 393 renal.
For experiment [5], the system named is 786-0 renal.
The subject of experiment [6] is NCI-H522 lung.
Experiment [7] concerns M14 melanoma.
Experiment [8] has as its system SK-MEL-2 melanoma.
Experiment [9] has as its system SF-268 CNS.
The test system of experiment [10] is HCT-116 colon.

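Values below derive from 48-hour exposures of cells grown in 96-well plates, with endpoints linearly interpolated between the two concentrations bracketing the appropriate inhibition level. GI50 marks 50% less growth. The concentration for full growth arrest is given as TGI.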 Bounds are passed on as bounds.

As for `CCc1ccccc1NC(=O)CCc1nc(=S)[nH][nH]1`, the TGI in experiment [1], in experiment [2], in [3], in experiment [4], in experiment [5] and in experiment [6] was greater than 100 µM in each case. Further, the TGI in experiment [7], in [8], in experiment [9] and in [10] was greater than 100 µM throughout.
Consider `COc1nccc(-c2c(-c3ccc(F)cc3)ncn2C2CCC(O)CC2)n1` (stereo not given), for which the GI50 is 61.8 µM in [1]; 99 µM in experiment [2]; greater than 100 µM in [3]; greater than 79.2 µM in [4]; greater than 100 µM in [5]; greater than 60.1 µM in [6]. In addition, the GI50 in [7] is greater than 100 µM; in experiment [8], greater than 100 µM; in experiment [9] it was greater than 84.6 µM; in [10] it was 79.3 µM. For the same molecule, the TGI in experiment [1], in experiment [2], in experiment [3], in experiment [4], in experiment [5] and in experiment [6] was greater than 100 µM in each case. Besides, the TGI in [7], in experiment [8], in [9] and in experiment [10] was greater than 100 µM in each case.
As for `Cc1c(C(=O)/C=C/c2ccc(O)cc2)nnn1-c1ccnc2c(C(F)(F)F)cccc12`, the GI50 in experiment [1] was 18 µM; in [2] it was 67.7 µM; in experiment [3], 34.5 µM; in experiment [4], 16.6 µM; in [5], greater than 100 µM; in experiment [6], 6.2 µM. Further, the GI50 in experiment [7] is 49.6 µM; in [8] it was greater than 100 µM; in experiment [9] it was 4.08 µM; in [10] it was 6.66 µM. Further, the TGI was greater than 100 µM in experiment [1]; greater than 100 µM in experiment [2]; greater than 100 µM in experiment [3]; 67.3 µM in [4]; greater than 100 µM in experiment [5]; greater than 100 µM in experiment [6]. For the same molecule, the TGI in [7] was greater than 100 µM; in experiment [8], greater than 100 µM; in experiment [9], 71.8 µM; in [10] it was greater than 100 µM.
Take `FC(F)(F)c1ccc2c(c1)N(CCCN1CCN(C3CC3)CC1)c1ccccc1S2`: the GI50 in experiment [1] was 13.3 µM; in experiment [2], 14.4 µM; in experiment [3] it was 13.9 µM; in [4], 11.5 µM; in [5], 15.4 µM; in [6] it was 11.5 µM. Moreover, the GI50 in experiment [7] is 15.1 µM; in experiment [8] it was 18.9 µM; in experiment [9] it was 12.7 µM; in experiment [10], 9.43 µM. The TGI in experiment [1] is 28.1 µM; in experiment [2] it was 27.8 µM; in [3] it was 28.1 µM; in experiment [4], 24.1 µM; in [5] it was 30.3 µM; in experiment [6], 25.8 µM. Moreover, the TGI in experiment [7] was 30.7 µM; in experiment [8], 34.9 µM; in experiment [9] it was 26.8 µM; in [10], 23.2 µM.
As to `Nc1cc(N)c2nc(-c3ccccc3)c(Nc3ccc(F)cc3)nc2c1`, the GI50 is 15.6 µM in [1]; 37.8 µM in [2]; 13.1 µM in experiment [3]; 8.71 µM in [4]; 17.4 µM in experiment [5]; greater than 100 µM in experiment [6]. In addition, the GI50 was 16.3 µM in experiment [7], 29.8 µM in experiment [8], 13.2 µM in [9] and 20.1 µM in experiment [10]. The TGI was 33.9 µM in experiment [1]; greater than 100 µM in experiment [2]; 43.6 µM in experiment [3]; 28.8 µM in experiment [4]; 54.3 µM in experiment [5]; greater than 100 µM in experiment [6]. In addition, the TGI in experiment [7] was 43.3 µM; in experiment [8], greater than 100 µM; in [9], 41 µM; in experiment [10], greater than 100 µM.
On to `CC1(C)OC2C(CO)OC(n3ccc(=O)[nH]c3=O)C2O1` (stereo not given), for which the TGI in experiment [1], in [2], in experiment [3], in experiment [4], in [5] and in [6] was greater than 100 µM in each case. The TGI in experiment [7], in experiment [8], in experiment [9] and in [10] was greater than 100 µM in each case.
As to `O=[N+]([O-])c1ccc(Cc2nc3ccccc3s2)cc1`, the TGI in [1], in experiment [2], in experiment [3], in [4], in experiment [5] and in experiment [6] was greater than 100 µM throughout. The TGI in [7], in experiment [8], in [9] and in experiment [10] was greater than 100 µM throughout.
Consider `Cc1ccc(NC(=O)c2ccnc(C(F)(F)F)c2)cc1-c1cc(OCCO)nc(N2CCOCC2)c1`, for which the GI50 in experiment [1] is 3.31 µM; in experiment [2], 1.28 µM; in experiment [3], 0.196 µM; in experiment [4], 1.94 µM; in experiment [5], 6.29 µM; in [6] it was 1.55 µM. Moreover, the GI50 in experiment [7] was 0.63 µM; in experiment [8], 0.192 µM; in experiment [9], 4.08 µM; in experiment [10], 0.7 µM. The TGI in experiment [1] is 28.6 µM; in experiment [2] it was 34.5 µM; in [3], 4.78 µM; in experiment [4], 10.4 µM; in experiment [5], 38.2 µM; in experiment [6], 17.2 µM. Also, the TGI is 5.25 µM in experiment [7], 3.44 µM in [8], 23.7 µM in experiment [9] and greater than 100 µM in [10].
As to `CCN(CC)CCC(=O)Nc1cccc2c1C(=O)c1c(c(O)c3ccccc3c1O)C2=O`, the GI50 was 21.5 µM in [1]; 10.4 µM in [2]; 0.237 µM in [3]; 4.16 µM in experiment [4]; 2.08 µM in [5]; 80.3 µM in experiment [6]. In addition, the GI50 was 35.4 µM in [7], greater than 100 µM in experiment [8], 12.7 µM in experiment [9] and 8.8 µM in [10]. In addition, the TGI in experiment [1] was greater than 100 µM; in experiment [2] it was 39.1 µM; in experiment [3] it was 8.56 µM; in experiment [4], 23.8 µM; in experiment [5], 4.39 µM; in experiment [6], greater than 100 µM. The TGI in experiment [7] is greater than 100 µM; in experiment [8], greater than 100 µM; in experiment [9], 36.5 µM; in experiment [10] it was greater than 100 µM.
With `CN(C)c1cccc2[nH]c(-c3[nH]ncc3Nc3ccnc(N)n3)nc12`, the GI50 was 0.0233 µM in experiment [1]; 0.0273 µM in [2]; 0.0152 µM in [3]; less than 0.01 µM in [4]; 0.0247 µM in experiment [5]; 0.0221 µM in [6]. Besides, the GI50 in experiment [7] was 0.0222 µM; in experiment [8] it was 0.021 µM; in experiment [9], 0.0179 µM; in experiment [10] it was less than 0.01 µM. The TGI is 1.1 µM in [1]; 0.629 µM in experiment [2]; 0.0603 µM in [3]; less than 0.0168 µM in experiment [4]; 1.13 µM in experiment [5]; 0.166 µM in experiment [6]. Further, the TGI in experiment [7] is 0.0812 µM; in experiment [8], 0.0692 µM; in experiment [9], 0.104 µM; in experiment [10], 1.09 µM.
Turning to `O=[N+]([O-])c1cccc(-c2nc3sccn3c2-c2ccnc(NCCCNS(=O)(=O)c3ccc(F)cc3)n2)c1`, the GI50 is 2.61 µM in [1]; 3.16 µM in [2]; 1.74 µM in experiment [3]; 6.95 µM in experiment [4]; 7.39 µM in experiment [5]; 1.59 µM in experiment [6]. For the same molecule, the GI50 in [7] is 2.72 µM; in experiment [8] it was 2.06 µM; in [9] it was 2.92 µM; in experiment [10], 2.85 µM. The TGI in experiment [1] is greater than 100 µM; in experiment [2], 9.61 µM; in experiment [3], greater than 100 µM; in experiment [4] it was greater than 100 µM; in [5] it was greater than 100 µM; in experiment [6] it was 6.02 µM. In addition, the TGI in [7] is greater than 100 µM; in experiment [8] it was 5.43 µM; in [9] it was greater than 100 µM; in experiment [10], greater than 100 µM.
On to `COc1ccccc1NC(=O)CC(=O)n1nc(C)c(N=Nc2ccccc2F)c1C`, for which the TGI in experiment [1] is greater than 100 µM; in experiment [2] it was greater than 83.9 µM; in experiment [3] it was greater than 100 µM; in experiment [4], greater than 100 µM; in [5], greater than 100 µM; in experiment [6], greater than 100 µM. Also, the TGI was greater than 100 µM in experiment [7], greater than 100 µM in experiment [8], greater than 93.3 µM in experiment [9] and greater than 31.6 µM in experiment [10].
As to `COc1ccc(C2CC(=O)Nc3c2c(C)nn3-c2nc3ccccc3[nH]2)cc1` (stereo not given), the GI50 was 3.28 µM in experiment [1]; 2.56 µM in [2]; 2.34 µM in experiment [3]; 2.63 µM in [4]; 3.82 µM in [5]; 2.67 µM in [6]. Also, the GI50 in experiment [7] was 2.54 µM; in experiment [8] it was 3.45 µM; in experiment [9], 3.86 µM; in experiment [10] it was 2.12 µM. In addition, the TGI in [1] is greater than 53.7 µM; in experiment [2], 6.55 µM; in [3], 6.72 µM; in experiment [4] it was 8.92 µM; in [5], greater than 33.3 µM; in experiment [6], 7.15 µM. Also, the TGI in experiment [7] amounted to 7.12 µM; in [8], 9.43 µM; in experiment [9], 97.7 µM; in [10], 4.38 µM.
Take `CC[C@@]1(O)C(=O)NCc2c1cc1n(c2=O)Cc2cc3cc4c(cc3nc2-1)OCO4`: the GI50 is 0.328 µM in experiment [1]; 0.235 µM in experiment [2]; 1.22 µM in [3]; 0.803 µM in experiment [4]; 0.672 µM in experiment [5]; 0.517 µM in [6]. Besides, the GI50 in [7] is 0.441 µM; in experiment [8], 67.5 µM; in experiment [9], 0.236 µM; in experiment [10] it was 0.883 µM. Also, the TGI was 11.7 µM in [1]; 20.4 µM in experiment [2]; greater than 26.9 µM in experiment [3]; greater than 100 µM in experiment [4]; 14.4 µM in experiment [5]; 54.6 µM in [6]. Also, the TGI is greater than 39.2 µM in experiment [7], greater than 100 µM in experiment [8], greater than 30.7 µM in experiment [9] and 46 µM in experiment [10].
For `COC(=O)Nc1ccc2ccc3c(NC(=O)OC)ccc4ccc1c2c43` (tested in a mixture with another compound), the GI50 is 18.9 µM in experiment [1]; 7.91 µM in experiment [2]; 1.62 µM in experiment [3]; 7.3 µM in experiment [4]; 12.2 µM in experiment [5]; 11 µM in [6]. For the same molecule, the GI50 in [7] was 3.93 µM; in experiment [8], 25.6 µM; in experiment [9], 14 µM; in experiment [10], 5.43 µM. Also, the TGI in [1] was greater than 50 µM; in [2], 25.4 µM; in experiment [3], 14.1 µM; in experiment [4], 20.5 µM; in experiment [5] it was 41.2 µM; in experiment [6], greater than 50 µM. Further, the TGI in experiment [7], in [8], in experiment [9] and in experiment [10] was greater than 50 µM each time.
Regarding `N#C/C(=C\c1cn(-c2ccccc2)c2ccccc12)C(=O)O`, the GI50 is 51.1 µM in experiment [1]; 39.2 µM in experiment [2]; 33.9 µM in experiment [3]; 28.7 µM in experiment [4]; 61.2 µM in experiment [5]; 29 µM in experiment [6]. Also, the GI50 was 61.2 µM in [7], 28 µM in [8], 43.4 µM in experiment [9] and 34.7 µM in experiment [10]. The TGI in [1] was greater than 100 µM; in experiment [2], greater than 100 µM; in [3] it was greater than 100 µM; in experiment [4] it was greater than 100 µM; in experiment [5] it was greater than 100 µM; in experiment [6] it was 88.8 µM. Moreover, the TGI in experiment [7], in experiment [8], in experiment [9] and in experiment [10] was greater than 100 µM in each case.
